Data on 20 compounds can be found in patent US20250388605A1, “HETEROBIFUNCTIONAL COMPOUNDS AND METHODS OF TREATING DISEASE” (Halda Therapeutics OpCo, Inc., priority 2022, published 2025).

Assay [1] concerns T-Rex 293 cell line SC3 cells having increased expression of androgen receptor protein due to exposure to doxycycline. As to the kind of experiment: Cellular growth inhibition, T-Rex 293 SC3 cells with doxycycline (increased androgen receptor expression), CellTiter-Glo. The note with it: T-Rex 293 SC3 cells with 10 ng/mL doxycycline (increased androgen receptor expression), 72 hours, CellTiter-Glo 2.0. In kind it is cell-based. Put shortly: (§1)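 Growth inhibition is measured in an inducible AR-expressing T-Rex 293 clone, SC3, cultured with or without 10 ng/mL doxycycline in hormone-depleted medium. Test compounds are applied for 72 hours. GI50 values derive from CellTiter-Glo 2.0 signal fitted by four-parameter regression.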

Assay [2] concerns T-Rex 293 cell line SC3 cells lacking increased expression of androgen receptor protein. Description: Cellular growth inhibition, T-Rex 293 SC3 cells without doxycycline (no increased androgen receptor expression), CellTiter-Glo. In kind it is cell-based. The note with it: T-Rex 293 SC3 cells not exposed to doxycycline (no increased androgen receptor expression), 72 hours. Put shortly: as §1

Assay [3] concerns VCaP cells. Description: Cellular growth inhibition assay for VCaP cells, CellTiter-Glo. The note with it: 72 hours. It counts as cell-based, human. The method, boiled down: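 GI50 values come from four-parameter curve fits of luminescence data normalized to a zero baseline. Compound, in medium with 0.5% DMSO, was added one day after plating and left for 72 h before CellTiter-Glo 2.0 addition.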

Assay [4] deals with T47D cells. Description: Cellular Growth Inhibition Assay for T47D Cells (CellTiter-Glo). In kind it is cell-based, human. The note with it: 72 hours. The method, boiled down: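 GI50 values derive from four-parameter regression of CellTiter-Glo 2.0 luminescence, using zero luminescence as baseline. Human breast cancer T47D cells (3000/well; DMEM, 10% FBS, 0.2 units/mL insulin) were exposed for 72 h to compound dilutions at 0.5% DMSO, with dosing starting 24 h after seeding.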

For the compound `CCS(=O)(=O)Nc1ccc(Oc2cccc(NCCOC3CCN(c4ncc(C(=O)N[C@H]5C(C)(C)[C@H](Oc6ccc(C#N)c(Cl)c6)C5(C)C)cn4)CC3)c2)c(-c2cn(C)c(=O)c3[nH]ccc23)c1` [Compound I-84], the GI50 in assay [1], in assay [2], in assay [3] (Homo sapiens) and in assay [4] (Homo sapiens) was less than 500 nM in each case.
Turning to `Cn1cc(-c2cc(C(C)(C)O)ccc2Oc2cccc(N3CC(CC4CCN(c5ncc(C(=O)N[C@H]6C(C)(C)[C@H](Oc7ccc(C#N)c(Cl)c7)C6(C)C)cn5)CC4)C3)c2F)c2cc[nH]c2c1=O` [Compound I-196], the GI50 is less than 500 nM in assay [1], more than 3000 nM in assay [2], more than 3000 nM in assay [3] and 500 to 1500 nM in assay [4].
For `Cn1cc(-c2cc(C(C)(C)O)ccc2Oc2cccc(OCCC3CCN(c4ncc(C(=O)N[C@H]5C(C)(C)[C@H](Oc6ccc(C#N)c(Cl)c6)C5(C)C)cn4)CC3)c2F)c2cc[nH]c2c1=O` [Compound I-142], the GI50 in assay [1] was less than 500 nM; in assay [2], 1500 to 3000 nM; in assay [3] (Homo sapiens), less than 500 nM; in assay [4] (Homo sapiens), 500 to 1500 nM.
With `Cn1cc(-c2cc(C(C)(C)O)ccc2Oc2cccc(CCCN3CCN(c4ncc(C(=O)N[C@H]5C(C)(C)[C@H](Oc6ccc(C#N)c(Cl)c6)C5(C)C)cn4)CC3)c2F)c2cc[nH]c2c1=O` [Compound I-143], the GI50 is less than 500 nM in assay [1], less than 500 nM in assay [2], less than 500 nM in assay [3] (Homo sapiens) and 500 to 1500 nM in assay [4] (Homo sapiens).
As for `CCS(=O)(=O)N(C)c1ccc(Oc2cccc(N3CCN(C4CN(c5ncc(C(=O)N[C@H]6C(C)(C)[C@H](Oc7ccc(C#N)c(Cl)c7)C6(C)C)cn5)C4)CC3)c2)c(-c2cn(C)c(=O)c3[nH]ccc23)c1` [Compound I-118], the GI50 was less than 500 nM in assay [1], more than 3000 nM in assay [2], less than 500 nM in assay [3] (Homo sapiens) and less than 500 nM in assay [4] (Homo sapiens).
Turning to `CCS(=O)(=O)Nc1ccc(Oc2cccc(N3CC4(CN(CC5CCN(c6ncc(C(=O)N[C@H]7C(C)(C)[C@H](Oc8ccc(C#N)c(Cl)c8)C7(C)C)cn6)CC5)C4)C3)c2)c(-c2cn(C)c(=O)c3[nH]ccc23)c1` [Compound I-35, N-((1r, 3r)-3-(3-chloro-4-cyanophenoxy)-2,2,4,4-tetramethylcyclobutyl)-2-(4-((6-(3-(4-(ethylsulfonamido)-2-(6-methyl-7-oxo-6,7-dihydro-1H-pyrrolo[2,3-c]pyridin-4-yl)phenoxy)phenyl)-2,6-diazaspiro[3.3]heptan-2-yl)methyl)piperidin-1-yl)pyrimidine-5-carboxamide], the GI50 in assay [1] is less than 500 nM; in assay [2] it was 1500 to 3000 nM; in assay [3] (Homo sapiens) it was less than 500 nM; in assay [4] (Homo sapiens) it was less than 500 nM.
Take `Cn1cc(-c2ccccc2Oc2cccc(OCCOC3CCN(c4ncc(C(=O)N[C@H]5C(C)(C)[C@H](Oc6ccc(C#N)c(Cl)c6)C5(C)C)cn4)CC3)c2)c2cc[nH]c2c1=O` [Compound I-61, N-((1r, 3r)-3-(3-chloro-4-cyanophenoxy)-2,2,4,4-tetramethylcyclobutyl)-2-(4-(2-(3-(2-(6-methyl-7-oxo-6,7-dihydro-1H-pyrrolo[2,3-c]pyridin-4-yl)phenoxy)phenoxy)ethoxy)piperidin-1-yl)pyrimidine-5-carboxamide]: the GI50 in assay [1] is less than 500 nM; in assay [2], 1500 to 3000 nM; in assay [3] (Homo sapiens), less than 500 nM; in assay [4] (Homo sapiens), less than 500 nM.
Turning to `CCS(=O)(=O)Nc1ccc(Oc2cccc(N3CC(N4CCN(c5ncc(C(=O)N[C@H]6C(C)(C)[C@H](Oc7ccc(C#N)c(Cl)c7)C6(C)C)cn5)CC4)C3)c2)c(-c2cn(C)c(=O)c3[nH]ccc23)c1` [Compound I-75], the GI50 in assay [1], in assay [2], in assay [3] (Homo sapiens) and in assay [4] (Homo sapiens) was less than 500 nM throughout.
In the case of `Cn1cc(-c2cc(C(C)(C)O)ccc2Oc2ccc(N3CC(CN4CC5CC4CN5c4ncc(C(=O)N[C@H]5C(C)(C)[C@H](Oc6ccc(C#N)c(Cl)c6)C5(C)C)cn4)C3)cc2)c2cc[nH]c2c1=O` (some centres unmarked) [Compound I-228], the GI50 in assay [1], in assay [2], in assay [3] (Homo sapiens) and in assay [4] (Homo sapiens) was less than 500 nM throughout.
As to `CC(C)N(CC1CCN(c2ncc(C(=O)N[C@H]3C(C)(C)[C@H](Oc4ccc(C#N)c(Cl)c4)C3(C)C)cn2)CC1)[C@H]1C[C@H](Oc2cccc(Oc3ccc(C(C)(C)O)cc3-c3cn(C)c(=O)c4[nH]ccc34)c2F)C1` [Compound I-214], the GI50 in assay [1], in assay [2], in assay [3] (Homo sapiens) and in assay [4] (Homo sapiens) was less than 500 nM throughout.
Take `CCS(=O)(=O)Nc1ccc(Oc2cccc(OCCOC3CCN(c4ccc(C(=O)N[C@H]5C(C)(C)[C@H](Oc6ccc(C#N)c(Cl)c6)C5(C)C)cn4)CC3)c2)c(-c2cn(C)c(=O)c3[nH]ccc23)c1` [Compound I-70, N-((1r, 3r)-3-(3-chloro-4-cyanophenoxy)-2,2,4,4-tetramethylcyclobutyl)-6-(4-(2-(3-(4-(ethylsulfonamido)-2-(6-methyl-7-oxo-6,7-dihydro-1H-pyrrolo[2,3-c]pyridin-4-yl)phenoxy)phenoxy)ethoxy)piperidin-1-yl)nicotinamide]: the 50% growth inhibitory concentration (GI50) in assay [1], in assay [2], in assay [3] (Homo sapiens) and in assay [4] (Homo sapiens) was less than 500 nM each time.
Regarding `Cn1cc(-c2cc(C(C)(C)O)ccc2Oc2cccc(OCCN3CCN(c4ncc(C(=O)N[C@H]5C(C)(C)[C@H](Oc6ccc(C#N)c(Cl)c6)C5(C)C)cn4)CC3)c2)c2cc[nH]c2c1=O` [Compound I-96], the GI50 in assay [1] was less than 500 nM; in assay [2], less than 500 nM; in assay [3] (Homo sapiens), less than 500 nM; in assay [4] (Homo sapiens), 500 to 1500 nM.
In the case of `CCS(=O)(=O)Nc1ccc(Oc2cccc(N3CC(N(C)C4CN(c5ncc(C(=O)N[C@H]6C(C)(C)[C@H](Oc7ccc(C#N)c(Cl)c7)C6(C)C)cn5)C4)C3)c2)c(-c2cn(C)c(=O)c3[nH]ccc23)c1` [Compound I-120], the GI50 is less than 500 nM in assay [1], more than 3000 nM in assay [2], less than 500 nM in assay [3] (Homo sapiens) and less than 500 nM in assay [4] (Homo sapiens).
For the compound `Cn1cc(-c2cc(N)ccc2Oc2cccc(OCCN3CCN(c4ncc(C(=O)N[C@H]5C(C)(C)[C@H](Oc6ccc(C#N)c(Cl)c6)C5(C)C)cn4)CC3)c2F)c2cc[nH]c2c1=O` [Compound I-100], the GI50 in assay [1] was less than 500 nM; in assay [2], more than 3000 nM; in assay [3] (Homo sapiens), less than 500 nM; in assay [4] (Homo sapiens), 1500 to 3000 nM.
For the compound `Cn1cc(-c2cc(C(C)(C)O)ccc2Oc2cccc(N3CC(OC4CCN(c5ncc(C(=O)N[C@H]6C(C)(C)[C@H](Oc7ccc(C#N)c(Cl)c7)C6(C)C)cn5)CC4)C3)c2F)c2cc[nH]c2c1=O` [Compound I-190], the GI50 in assay [1] was less than 500 nM; in assay [2] it was 500 to 1500 nM; in assay [3] it was less than 500 nM; in assay [4], 500 to 1500 nM.
On to `CCS(=O)(=O)c1ccc(OCC(CCCN2CCN(c3ncc(C(=O)NC4C(C)(C)C(Oc5ccc(C#N)c(Cl)c5)C4(C)C)cn3)CC2)C2CC2)c(-c2cn(C)c(=O)c3[nH]ccc23)c1` (centres unmarked) [Compound I-231, N-[3-(3-chloro-4-cyano-phenoxy)-2,2,4,4-tetramethyl-cyclobutyl]-2-[4-[4-cyclopropyl-5-[4-ethylsulfonyl-2-(6-methyl-7-oxo-1H-pyrrolo[2,3-c]pyridin-4-yl)phenoxy]pentyl]piperazin-1-yl]pyrimidine-5-carboxamide], for which the GI50 in assay [1], in assay [2], in assay [3] (Homo sapiens) and in assay [4] (Homo sapiens) was less than 500 nM each time.
In the case of `Cc1ccc(CCCOC2CCN(c3ncc(C(=O)N[C@H]4C(C)(C)[C@H](Oc5ccc(C#N)c(Cl)c5)C4(C)C)cn3)CC2)c(C)c1Oc1ccc(C(C)(C)O)cc1-c1cn(C)c(=O)c2[nH]ccc12` [Compound I-195], the GI50 was less than 500 nM in assay [1], more than 3000 nM in assay [2], more than 3000 nM in assay [3] (Homo sapiens) and 500 to 1500 nM in assay [4] (Homo sapiens).
For the compound `Cn1cc(-c2cc(C(C)(C)O)ccc2Oc2cccc(OCCC3CCN(c4ncc(C(=O)N[C@H]5C(C)(C)[C@H](Oc6ccc(C#N)c(Cl)c6)C5(C)C)cn4)CC3)c2)c2cc[nH]c2c1=O` [Compound I-156], the GI50 in assay [1] is less than 500 nM; in assay [2], more than 3000 nM; in assay [3], more than 3000 nM; in assay [4], 500 to 1500 nM.
Consider `Cn1cc(-c2cc(C(C)(C)O)ccc2Oc2cccc(N3CC(N4CCN(c5ncc(C(=O)N[C@H]6C(C)(C)[C@H](Oc7ccc(C#N)c(Cl)c7)C6(C)C)cn5)CC4)C3)c2)c2cc[nH]c2c1=O` [Compound I-105], for which the GI50 is less than 500 nM in assay [1], less than 500 nM in assay [2], less than 500 nM in assay [3] (Homo sapiens) and 500 to 1500 nM in assay [4] (Homo sapiens).
Turning to `CCS(=O)(=O)Nc1ccc(Oc2ccc(OCC3CCN(c4ncc(C(=O)N[C@H]5C(C)(C)[C@H](Oc6ccc(C#N)c(Cl)c6)C5(C)C)cn4)CC3)cc2)c(-c2cn(C)c(=O)c3[nH]ccc23)c1` [Compound I-138], the GI50 in assay [1], in assay [2], in assay [3] and in assay [4] was less than 500 nM in each case.
